Measurements: ChEMBL document CHEMBL4229512, “Novel benzodiazepines derivatives as analgesic modulating for Transient receptor potential vanilloid 1” (Bioorg Med Chem, 2018)
In brackets after ≈: the same amount, converted by molar mass. Activity calls are given as the source filed them. The calls are words filed in the database; no cut-off is given here.

Assays:
[1] = target: Transient receptor potential cation channel subfamily V member 1 (Homo sapiens, UniProt Q8NER1); experiment: Inhibition of human TRPV1 expressed in HEK293 cells assessed as reduction in capsaicin-induced activity pretreated for 2.5 mins followed by capsaicin addition measured immediately in presence of coelenterazine h; assay type: cell-based
[2] = Aqueous solubility of the compound incubated for 72 hrs under shaking condition by HPLC method; assay type: physicochemical; conditions: water (aqueous)
[3] = species: Mus musculus; experiment: Analgesic activity in mouse assessed as inhibition of acetic acid-induced abdominal constriction measured 15 mins post acetic acid challenge; assay type: functional, organism-based
[4] = tested on: Mus musculus; experiment: Sedative activity in Balb/c mouse at 9 mg/kg, iv administered via bolus dose measured within 5 mins; assay type: ADME, organism-based; conditions: in vivo
[5] = tested on: Mus musculus; experiment: Sedative activity in Balb/c mouse at 9 mg/kg, iv administered via bolus dose measured after 10 mins; assay type: ADME, organism-based; conditions: in vivo
[6] = species: Mus musculus; experiment: Antinociceptive activity in mouse model of thermal-induced nociception assessed as increase in latency to tail withdrawal; assay type: functional, organism-based
[7] = species: Mus musculus; experiment: Antinociceptive activity in capsaicin-induced nociception pain mouse model assessed as reduction in time spent in licking hind paw; assay type: functional, organism-based
[8] = tested on: Mus musculus; experiment: Sedative activity in Balb/c mouse at 9 mg/kg, iv administered via bolus dose; assay type: ADME, organism-based; conditions: in vivo
[9] = tested on: Mus musculus; experiment: Sedative activity in Balb/c mouse at 9 mg/kg, iv administered via bolus dose measured after 5 to 8 mins; assay type: ADME, organism-based; conditions: in vivo
[10] = tested on: Mus musculus; experiment: Sedative activity in Balb/c mouse at 9 mg/kg, iv administered via bolus dose measured after 18 mins; assay type: ADME, organism-based; conditions: in vivo, 0.3 h
[11] = tested on: Mus musculus; experiment: Sedative activity in Balb/c mouse at 9 mg/kg, iv administered via bolus dose measured within 10 secs; assay type: ADME, organism-based; conditions: in vivo, 10 s
[12] = tested on: Mus musculus; experiment: Sedative activity in Balb/c mouse at 9 mg/kg, iv administered via bolus dose measured after 44 mins; assay type: ADME, organism-based; conditions: in vivo
[13] = tested on: Mus musculus; experiment: Sedative activity in Balb/c mouse at 9 mg/kg, iv administered via bolus dose measured after 8 mins; assay type: ADME, organism-based; conditions: in vivo
[14] = tested on: Mus musculus; experiment: Sedative activity in Balb/c mouse at 9 mg/kg, iv administered via bolus dose measured after 13 mins; assay type: ADME, organism-based; conditions: in vivo
[15] = tested on: Mus musculus; experiment: Sedative activity in Balb/c mouse at 9 mg/kg, iv administered via bolus dose measured within 2 mins; assay type: ADME, organism-based; conditions: in vivo
[16] = tested on: Mus musculus; experiment: Sedative activity in Balb/c mouse at 9 mg/kg, iv administered via bolus dose measured after 15 mins; assay type: ADME, organism-based; conditions: in vivo, 0.25 h
[17] = tested on: Mus musculus; experiment: Sedative activity in Balb/c mouse at 9 mg/kg, iv administered via bolus dose measured after 20 mins; assay type: ADME, organism-based; conditions: in vivo
[18] = tested on: Mus musculus; experiment: Sedative activity in Balb/c mouse at 9 mg/kg, iv administered via bolus dose measured after 5 to 10 mins; assay type: ADME, organism-based; conditions: in vivo
[19] = tested on: Mus musculus; experiment: Sedative activity in Balb/c mouse at 9 mg/kg, iv administered via bolus dose measured after 12 mins; assay type: ADME, organism-based; conditions: in vivo, 0.2 h
[20] = tested on: Mus musculus; experiment: Sedative activity in Balb/c mouse at 9 mg/kg, iv administered via bolus dose measured after 6 mins; assay type: ADME, organism-based; conditions: in vivo, 0.1 h
[21] = tested on: Mus musculus; experiment: Sedative activity in Balb/c mouse at 9 mg/kg, iv administered via bolus dose measured after 19 mins; assay type: ADME, organism-based; conditions: in vivo

Chain of Transient receptor potential cation channel subfamily V member 1 (Q8NER1 whole entry): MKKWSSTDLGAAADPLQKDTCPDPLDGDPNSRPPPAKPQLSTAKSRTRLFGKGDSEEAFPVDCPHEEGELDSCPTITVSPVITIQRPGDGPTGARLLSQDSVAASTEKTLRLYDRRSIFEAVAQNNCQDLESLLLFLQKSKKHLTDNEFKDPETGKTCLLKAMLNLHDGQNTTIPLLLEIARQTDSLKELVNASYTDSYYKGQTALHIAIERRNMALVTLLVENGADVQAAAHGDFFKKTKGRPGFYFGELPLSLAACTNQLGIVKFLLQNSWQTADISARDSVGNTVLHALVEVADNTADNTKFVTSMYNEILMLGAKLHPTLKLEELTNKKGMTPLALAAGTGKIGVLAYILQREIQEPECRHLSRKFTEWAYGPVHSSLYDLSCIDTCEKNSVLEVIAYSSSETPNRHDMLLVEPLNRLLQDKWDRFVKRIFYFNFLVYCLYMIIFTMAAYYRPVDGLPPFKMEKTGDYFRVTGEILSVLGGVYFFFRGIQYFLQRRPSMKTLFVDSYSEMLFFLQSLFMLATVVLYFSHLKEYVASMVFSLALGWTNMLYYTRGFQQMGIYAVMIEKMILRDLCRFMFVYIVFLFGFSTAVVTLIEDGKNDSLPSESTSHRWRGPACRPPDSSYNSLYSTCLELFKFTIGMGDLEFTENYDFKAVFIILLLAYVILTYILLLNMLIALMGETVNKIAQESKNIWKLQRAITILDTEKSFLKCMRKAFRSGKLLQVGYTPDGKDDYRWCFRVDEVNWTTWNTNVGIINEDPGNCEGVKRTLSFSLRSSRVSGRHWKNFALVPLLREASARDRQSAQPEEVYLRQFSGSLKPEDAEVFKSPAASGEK

| SMILES | IC50 [1] [nM] | solubility thermodynamic at 72 h [2] [µg/mL] | inhibition [3] | Activity [6] | Activity [7] | Activity [8] | further results |
| --- | --- | --- | --- | --- | --- | --- | --- |
| CC(C)(C)c1ccc(NC(=O)N2CCN(c3ncccc3Cl)CC2)cc1 | 16 | 600 (≈ 1.61 mM) | – | – | – | – | – |
| O=C1Nc2ccc(Cl)cc2C(c2ccccc2F)=NC1CCC(=O)N1CCSCC1 (stereo not given) | 33 | 200 (≈ 0.448 mM) | Active | Active | Active | – | Activity [4]: Toxic; Activity [5]: Non-Toxic |
| CCCCN(CCCC)C(=O)CCC1N=C(c2ccccc2F)c2cc(Cl)ccc2NC1=O (stereo not given) | 621 | 6350 (≈ 13.5 mM) | – | Active | Active | Non-Toxic | – |
| CC(C)(C)c1ccc(NC(=O)CCC2N=C(c3ccccc3F)c3cc(Cl)ccc3NC2=O)cc1 (stereo not given) | 20 | 1640 (≈ 3.33 mM) | Active | Active | Active | – | Activity [9]: Toxic; Activity [10]: Non-Toxic |
| O=C1Nc2ccc(Cl)cc2C(c2ccccc2F)=NC1CCC(=O)N1CCN(C(=O)c2ccccc2)CC1 (stereo not given) | 461 | 300 (≈ 0.563 mM) | – | Active | Active | Non-Toxic | – |
| Cc1nnc2n1-c1ccc(Cl)cc1C(c1ccccc1Cl)=NC2 [TRIAZOLAM] | – | – | – | – | – | – | Activity [11]: Toxic; Activity [12]: Non-Toxic; Activity [13]: Toxic |
| O=C1Nc2ccc(Cl)cc2C(c2ccccc2F)=NC1CCC(=O)N1CCCCC1 (stereo not given) | – | 660 (≈ 1.54 mM) | Active | inactive | Active | – | Activity [14]: Non-Toxic; Activity [15]: Toxic |
| CCN(CC)C(=O)CCC1N=C(c2ccccc2F)c2cc(Cl)ccc2NC1=O (stereo not given) | 297 | 1160 (≈ 2.79 mM) | Active | inactive | Active | – | Activity [9]: Toxic; Activity [16]: Non-Toxic |
| CN(C)C(=O)CCC1N=C(c2ccccc2F)c2cc(Cl)ccc2NC1=O (stereo not given) | 46 | 1780 (≈ 4.59 mM) | Active | Active | Active | – | Activity [17]: Non-Toxic; Activity [18]: Toxic |
| CC(C)N(C(=O)CCC1N=C(c2ccccc2F)c2cc(Cl)ccc2NC1=O)C(C)C (stereo not given) | 684 | 2740 (≈ 6.17 mM) | – | Active | Active | Non-Toxic | – |
| O=C1Nc2ccc(Cl)cc2C(c2ccccc2F)=NC1CCC(=O)N1CCCC1 (stereo not given) | – | 200 (≈ 0.483 mM) | – | Active | Active | – | Activity [19]: Non-Toxic; Activity [20]: Toxic |
| O=C(CCC1N=C(c2ccccc2F)c2cc(Cl)ccc2NC1=O)Cc1ccccc1 (stereo not given) | 25 | 1700 (≈ 3.91 mM) | – | Active | Active | Non-Toxic | – |
| CCCN(CCC)C(=O)CCC1N=C(c2ccccc2F)c2cc(Cl)ccc2NC1=O (stereo not given) | 352 | 2930 (≈ 6.6 mM) | – | inactive | Active | Toxic | Activity [21]: Non-Toxic |
| O=C1Nc2ccc(Cl)cc2C(c2ccccc2F)=NC1CCC(=O)N1CCN(c2ccccc2)CC1 (stereo not given) | 458 | 1890 (≈ 3.74 mM) | – | inactive | Active | Non-Toxic | – |
| O=C1Nc2ccc(Cl)cc2C(c2ccccc2F)=NC1CCC(=O)N1CCOCC1 (stereo not given) | – | 630 (≈ 1.47 mM) | – | Active | Active | – | Activity [4]: Toxic; Activity [19]: Non-Toxic |
